Measured values taken from the Kinase Knowledgebase extract (Sharma et al. 2016).

Assays:
CDK2 (human) [1] = target: CDK2 (human) (UniProt P24941); assay: Enzyme Assay
CDK2 (human) [2] = target: CDK2 (human) (UniProt P24941); assay: Enzyme Assay; remark: listed apart in the source

SMILES	IC50 (CDK2 (human) [1]) [µM]	IC50 (CDK2 (human) [2]) [µM]
CN(C)C1CCN(c2ccc(Nc3nc(N)c(C(=O)c4ccc([N+](=O)[O-])cc4)s3)cc2)CC1	10	10
CCNC1CCN(c2ccc(Nc3nc(N)c(C(=O)c4cccc(F)c4)s3)cc2)CC1	1.01	1.01
Nc1nc(Nc2ccc(N3CCC(N4CCCC(O)C4)CC3)cc2)sc1C(=O)c1ccc2c(c1)OCCO2 (stereo not given)	1.45	1.45
Nc1nc(Nc2ccc(N3CCC(N4CCCC(O)C4)CC3)cc2)sc1C(=O)c1ccc(Cl)cc1 (stereo not given)	10	10
NC(=O)c1cc(C(=O)c2sc(Nc3ccc(N4CCC(N5CCCC5)CC4)cc3)nc2N)ccc1O	10	10
